Holding throughout (assay): AK assay 384-well format, Prestwick library screening
One test relates to E. coli. The class given is cell-based, Escherichia coli. The following applies: 50 μM final drug concentration; for fold induction at 50 µM: Escherichia coli, 3 h.
For a further test, the system named is E. faecium. The class given is cell-based, Enterococcus faecium. The note with it: 50 μM final drug concentration; for fold induction at 50 µM: Enterococcus faecium, 3 h.
The test system of a further test is P. aeruginosa. The format is cell-based, Pseudomonas aeruginosa. The note with it: 50 μM final drug concentration; for fold induction at 50 µM: Pseudomonas aeruginosa, 3 h.
Test [1] concerns A. baumannii strain 98-37-09. The format is cell-based, Acinetobacter baumannii. The following applies: 50 μM final drug concentration; for fold induction at 50 µM: Acinetobacter baumannii, 983709, 3 h.
Test [2] concerns S. aureus strain USA300-0114. The class given is cell-based, Staphylococcus aureus. The following applies: 50 μM final drug concentration; for fold induction at 50 µM: Staphylococcus aureus, USA300, 3 h.
Another test has as its system E. cloacae. The format is cell-based, Enterobacter cloacae. The note with it: 50 μM final drug concentration; for fold induction at 50 µM: Enterobacter cloacae, 3 h.
The subject of a further test is K. pneumoniae. The format is cell-based, Klebsiella pneumoniae. The following applies: 50 μM final drug concentration; for fold induction at 50 µM: Klebsiella pneumoniae, 3 h.
Setting [3] is: planktonic, […], read-out: AK-based Prestwick Library Screening Results, E. coli (fold increase in extracellular AK activity).
The mark [4] stands for this setting: planktonic, […], read-out: AK-based Prestwick Library Screening Results, E. faecium (fold increase in extracellular AK activity).
Setting [5] is: planktonic, […], read-out: AK-based Prestwick Library Screening Results, P. aeruginosa (fold increase in extracellular AK activity).
[6] abbreviates: planktonic, […], read-out: AK-based Prestwick Library Screening Results, A. baumannii (fold increase in extracellular AK activity).
[7] abbreviates: planktonic, […], read-out: AK-based Prestwick Library Screening Results, S. aureus (fold increase in extracellular AK activity).
The mark [8] stands for this setting: planktonic, […], read-out: AK-based Prestwick Library Screening Results, E. cloacae (fold increase in extracellular AK activity).
The mark [9] stands for this setting: planktonic, […], read-out: AK-based Prestwick Library Screening Results, K. pneumoniae (fold increase in extracellular AK activity).
Setting [10] is: 384-well format, cutoff for positive-scoring molecules 3-fold increase, read-out: AK-based Prestwick Library Screening Results, E. coli (increase in extracellular AK activity).
[11] abbreviates: 384-well format, cutoff for positive-scoring molecules 3-fold increase, read-out: AK-based Prestwick Library Screening Results, E. faecium (increase in extracellular AK activity).
Setting [12] is: 384-well format, cutoff for positive-scoring molecules 3-fold increase, read-out: AK-based Prestwick Library Screening Results, P. aeruginosa (increase in extracellular AK activity).
[13] abbreviates: 384-well format, cutoff for positive-scoring molecules 3-fold increase, read-out: AK-based Prestwick Library Screening Results, A. baumannii (increase in extracellular AK activity).
Where [14] appears, read: 384-well format, cutoff for positive-scoring molecules 3-fold increase, read-out: AK-based Prestwick Library Screening Results, S. aureus (increase in extracellular AK activity).
[15] abbreviates: 384-well format, cutoff for positive-scoring molecules 3-fold increase, read-out: AK-based Prestwick Library Screening Results, E. cloacae (increase in extracellular AK activity).
[16] abbreviates: 384-well format, cutoff for positive-scoring molecules 3-fold increase, read-out: AK-based Prestwick Library Screening Results, K. pneumoniae (increase in extracellular AK activity).

Structures can show the parent of a compound that is named as a salt. Where two headings read alike, the source gives them in different places.

In the case of `COc1ccc2c3c([nH]c2c1)C(C)=NCC3` [Harmaline hydrochloride dihydrate], the fold induction at 50 µM was 1.1 in the test on E. coli (setting [3]); 1 in the test on E. faecium (setting [4]); 1 with P. aeruginosa (setting [5]); 1 in test [1] (setting [6]); 1.4 in test [2] (setting [7]); 1.3 in the test with E. cloacae (setting [8]). In the test with K. pneumoniae (setting [9]), the fold induction at 50 µM worked out at 0.9.
On to `CC1=NCCc2c1[nH]c1cc(O)ccc21` [Harmalol hydrochloride dihydrate], for which the fold induction at 50 µM with E. coli (planktonic, cutoff for positive 3-fold increase, read-out: AK-based Prestwick Library Screening Results, E. coli (fold increase in extracellular AK activity)) was determined as 1.2; in the test with E. faecium (planktonic, cutoff for positive 3-fold increase, read-out: AK-based Prestwick Library Screening Results, E. faecium (fold increase in extracellular AK activity)) it was 1; in the test on P. aeruginosa (planktonic, cutoff for positive 3-fold increase, read-out: AK-based Prestwick Library Screening Results, P. aeruginosa (fold increase in extracellular AK activity)), 1.2; in test [1] (planktonic, cutoff for positive 3-fold increase, read-out: AK-based Prestwick Library Screening Results, A. baumannii (fold increase in extracellular AK activity)), 1.1; in test [2] (planktonic, cutoff for positive 3-fold increase, read-out: AK-based Prestwick Library Screening Results, S. aureus (fold increase in extracellular AK activity)) it was 0.8; with E. cloacae (planktonic, cutoff for positive 3-fold increase, read-out: AK-based Prestwick Library Screening Results, E. cloacae (fold increase in extracellular AK activity)) it was 1.6. For the same molecule, the fold induction at 50 µM in the test with K. pneumoniae (planktonic, cutoff for positive 3-fold increase, read-out: AK-based Prestwick Library Screening Results, K. pneumoniae (fold increase in extracellular AK activity)) was 0.8.
Take `COc1ccc2c(c1)[nH]c1c(C)nccc12` [Harmine hydrochloride]: the fold induction at 50 µM is 1.1 in the test on E. coli (setting [3]); 1.1 in the test on E. faecium (setting [4]); 1.2 in the test on P. aeruginosa (setting [5]); 1 in test [1] (setting [6]); 0.9 in test [2] (setting [7]); 1.5 with E. cloacae (setting [8]). Also, the fold induction at 50 µM in the test on K. pneumoniae (setting [9]) was 0.7.
Turning to `Cc1[nH]ccc2c1[nH]c1cc(=O)ccc12` [Harmol hydrochloride monohydrate], the fold induction at 50 µM is 1.4 with E. coli (setting [3]); 1 with E. faecium (setting [4]); 1.1 in the test with P. aeruginosa (setting [5]); 1.1 in test [1] (setting [6]); 0.9 in test [2] (setting [7]); 1.6 with E. cloacae (setting [8]). For the same molecule, the fold induction at 50 µM with K. pneumoniae (setting [9]) was 0.9.
In the case of `C[C@]1(OC(=O)/C=C/c2ccccc2)C[C@@H](O)[C@]2(O)C=CO[C@@H](O[C@@H]3O[C@H](CO)[C@@H](O)[C@H](O)[C@H]3O)[C@@H]21` [Harpagoside], the fold induction at 50 µM came out at 0.8 in the test with E. coli (planktonic E. coli, positive cutoff 3-fold increase, read-out: AK-based Prestwick library screening result, E. coli (fold increase in extracellular AK activity)); 0.9 in the test with E. faecium (planktonic E. faecium, positive cutoff 3-fold increase, read-out: AK-based Prestwick library screening result, E. faecium (fold increase in extracellular AK activity)); 0.8 in the test on P. aeruginosa (planktonic P. aeruginosa, positive cutoff 3-fold increase, read-out: AK-based Prestwick library screening result, P. aeruginosa (fold increase in extracellular AK activity)); 0.9 in test [1] (planktonic A. baumannii, positive cutoff 3-fold increase, read-out: AK-based Prestwick library screening result, A. baumannii (fold increase in extracellular AK activity)); 0.8 in test [2] (planktonic S. aureus, positive cutoff 3-fold increase, read-out: AK-based Prestwick library screening result, S. aureus (fold increase in extracellular AK activity)); 0.9 in the test with E. cloacae (planktonic E. cloacae, positive cutoff 3-fold increase, read-out: AK-based Prestwick library screening result, E. cloacae (fold increase in extracellular AK activity)). In addition, the fold induction at 50 µM in the test on K. pneumoniae (planktonic K. pneumoniae, positive cutoff 3-fold increase, read-out: AK-based Prestwick library screening result, K. pneumoniae (fold increase in extracellular AK activity)) came to 0.7.
With `CO[C@H](C)[C@](O)(C(=O)OCC1=CCN2CC[C@H](O)[C@@H]12)C(C)C` [Heliotrine], the fold induction at 50 µM came to 1.2 with E. coli (setting [3]); 1 in the test with E. faecium (setting [4]); 1 in the test on P. aeruginosa (setting [5]); 1 in test [1] (setting [6]); 1.4 in test [2] (setting [7]); 1.7 with E. cloacae (setting [8]). Besides, in the test with K. pneumoniae (setting [9]), the fold induction at 50 µM is 1.
For `C[C@H]1O[C@@H](O[C@H]2CC[C@]3(C=O)[C@H]4CC[C@]5(C)[C@@H](C6=CC(=O)OC6)CC[C@]5(O)[C@@H]4CC[C@]3(O)C2)C[C@H](O)[C@@H]1O` [Helveticoside], the “AK-based Prestwick Library Screening Results, E. coli (fold increase in extracellular AK activity)” value in the test with E. coli (planktonic, […]) amounted to 0.5. For the same molecule, the “AK-based Prestwick Library Screening Results, E. faecium (fold increase in extracellular AK activity)” value with E. faecium (planktonic, […]) came out at 0.9. Further, the “AK-based Prestwick Library Screening Results, P. aeruginosa (fold increase in extracellular AK activity)” value in the test on P. aeruginosa (planktonic, […]) is 0.4. Further, the “AK-based Prestwick Library Screening Results, A. baumannii (fold increase in extracellular AK activity)” value in test [1] (planktonic, […]) came out at 0.4. Besides, in test [2] (planktonic, […]), the “AK-based Prestwick Library Screening Results, S. aureus (fold increase in extracellular AK activity)” value is reported as 0.4. In addition, the “AK-based Prestwick Library Screening Results, E. cloacae (fold increase in extracellular AK activity)” value in the test with E. cloacae (planktonic, […]) was determined as 0.4. In the test with K. pneumoniae (planktonic, […]), the “AK-based Prestwick Library Screening Results, K. pneumoniae (fold increase in extracellular AK activity)” value was 0.5.
As for `C[N+]1(C)CCOC(O)(c2ccc(-c3ccc(C4(O)C[N+](C)(C)CCO4)cc3)cc2)C1.[Br-].[Br-]` (centres unmarked) [Hemicholinium bromide], the “AK-based Prestwick Library Screening Results, E. coli (fold increase in extracellular AK activity)” value with E. coli (planktonic, […]) was determined as 1.1. Further, in the test with E. faecium (planktonic, […]), the “AK-based Prestwick Library Screening Results, E. faecium (fold increase in extracellular AK activity)” value came to 0.9. Besides, in the test on P. aeruginosa (planktonic, […]), the “AK-based Prestwick Library Screening Results, P. aeruginosa (fold increase in extracellular AK activity)” value was found to be 0.9. Moreover, the “AK-based Prestwick Library Screening Results, A. baumannii (fold increase in extracellular AK activity)” value in test [1] (planktonic, […]) is on record as 1.2. Besides, in test [2] (planktonic, […]), the “AK-based Prestwick Library Screening Results, S. aureus (fold increase in extracellular AK activity)” value is 1.0. Moreover, the “AK-based Prestwick Library Screening Results, E. cloacae (fold increase in extracellular AK activity)” value in the test on E. cloacae (planktonic, […]) was found to be 2.0. For the same molecule, in the test with K. pneumoniae (planktonic, […]), the “AK-based Prestwick Library Screening Results, K. pneumoniae (fold increase in extracellular AK activity)” value was found to be 1.0.
Regarding `CC(N)CCCC(C)(C)O` (centres unmarked) [Heptaminol hydrochloride], the fold induction at 50 µM with E. coli (setting [10]) stood at 0.8; in the test on E. faecium (setting [11]), 0.9; in the test on P. aeruginosa (setting [12]), 0.5; in test [1] (setting [13]), 0.6; in test [2] (setting [14]), 0.7; in the test on E. cloacae (setting [15]), 0.7. Besides, the fold induction at 50 µM in the test with K. pneumoniae (setting [16]) was determined as 0.5.
With `COc1ccc([C@@H]2CC(=O)c3c(O)cc(O)cc3O2)cc1O` [Hesperetin], the fold induction at 50 µM in the test on E. coli (setting [10]) amounted to 1.1; in the test with E. faecium (setting [11]), 0.9; in the test with P. aeruginosa (setting [12]), 0.9; in test [1] (setting [13]), 1.1; in test [2] (setting [14]), 0.5; with E. cloacae (setting [15]), 1.3. Further, the fold induction at 50 µM in the test on K. pneumoniae (setting [16]) turned out to be 0.9.
Consider `COc1ccc([C@@H]2CC(=O)c3c(O)cc(O[C@@H]4O[C@H](CO[C@@H]5O[C@@H](C)[C@H](O)[C@@H](O)[C@H]5O)[C@@H](O)[C@H](O)[C@H]4O)cc3O2)cc1O` [Hesperidin], for which the “AK-based Prestwick Library Screening Results, E. coli (fold increase in extracellular AK activity)” value in the test with E. coli (planktonic, […]) was determined as 1.1. For the same molecule, the “AK-based Prestwick Library Screening Results, E. faecium (fold increase in extracellular AK activity)” value in the test on E. faecium (planktonic, […]) came to 1.1. The “AK-based Prestwick Library Screening Results, P. aeruginosa (fold increase in extracellular AK activity)” value in the test on P. aeruginosa (planktonic, […]) was found to be 1.0. Also, the “AK-based Prestwick Library Screening Results, A. baumannii (fold increase in extracellular AK activity)” value in test [1] (planktonic, […]) worked out at 1.2. Further, the “AK-based Prestwick Library Screening Results, S. aureus (fold increase in extracellular AK activity)” value in test [2] (planktonic, […]) amounted to 1.3. Further, the “AK-based Prestwick Library Screening Results, E. cloacae (fold increase in extracellular AK activity)” value in the test on E. cloacae (planktonic, […]) came out at 1.4. Besides, the “AK-based Prestwick Library Screening Results, K. pneumoniae (fold increase in extracellular AK activity)” value with K. pneumoniae (planktonic, […]) is 1.0.

These data come from patent US10004701B2, “Methods and compositions for treating infection” (UNIVERSITY OF ROCHESTER, priority 2012, dated 2018).
